The results in this text go back to US6482833B2, “Immunotherapeutic anti-cancer pharmaceutical compositions” (North Shore - Long Island Jewish Research Institute, priority 1997, dated 2002).

The structures appear in SMILES notation. “Also recorded” adds a separate entry of the source.

A short description of data set [1]: Carrageenan foot pad edema model of inflammation. The format is in vivo, mice. As to the method: To determine an inflammatory […] foot pad edema model with carrageenan, female C3H/HeN mice (20-25g) were obtained from Jackson Laboratories, and 5 mice were used in each group to obtain statistically significant results. […] Louis, Mo.) was made in PBS at 37° C. 3 days or more before using. […] Louis, Mo.) was made freshly each time. Carrageenan (50 μl, 0.2%) was injected into the plantar surface of the left hind paw to induce paw edema in control group. and spermine at the doses indicated was coadministered in 50 μl PBS in three spermine groups. The right hind paw was injected with the same volume of PBS as control for every groups. The thickness of the two paws was measured double-blindly using a caliper 3 hours and 28 hours later. The difference in the thickness between the two paws was taken as inflammatory index.
On the technique in general: In the carrageenan paw model, swelling and tenderness develop within hours.

For the next data set, the system named is tumor cells. Nature of the data set: Direct cytotoxicity of the immunomodulatory compounds. The format is cell-based. As to conditions: effective immunostimulatory concentrations.
The subject of a further data set is B16 F1 tumor cells. Briefly: In vivo mouse tumor model (B16 F1 cells), tumor size and formation. On the set-up: species or system mice. As to conditions: for solid tumor masses: mice, administered parenterally.
Data set [2] concerns TNFα release from LPS-stimulated macrophage cell cultures. Nature of the data set: TNF release from LPS-activated monocyte/macrophage cultures counter-regulated by spermine (ELISA). Particulars: for override of spermine inhibition of TNFα release: LPS-stimulated cells with spermine, TNFα in culture supernatants, dose-response. The class given is cell-based, human. As to the method: Macrophage activation was measured by release of TNF into macrophage cell culture supernatants.
Monocytes were isolated and cultured by isolating fresh human PBMCs from EDTA-blood from healthy donors (Long Island Blood Service, Melville, N.Y.) by Ficoll-Paque (Pharmacia, Uppsala, Sweden) gradient. Cells were suspended in RPMI 1640 medium (Gibco BRL, Grand Island, N.Y.) containing 10% heat-inactivated human serum, 0.1% L-glutamine, and 0.01% gentamycin), and cultured at 37° C. in a humidified atmosphere of 5% CO2 and 95% air. PBMCs were plated in 96-well plates at 5×10^5 cells per well for cytokine assay and uptake study or in 24-well plates at 5×10^6 cells per well for RNA study. Nonadherent cells were removed after overnight culture, and adherent cells (monocytes) were then used for experiment.
(§1) Monocytes were activated to release cytokines by treating cells with 100 ng/ml sonicated LPS (Sigma, St Louis, Mo.) and 25 u/ml recombinant human interferon-γ (Boehringer Mannheim, Mannheim, Germany) except 1 μg/ml LPS alone for IL-1β. For treating cells with spermine, cells were pretreated with spermine (Sigma, St Louis, Mo.) one hour before LPS/IFG stimulation. Spermine was made freshly each time in sterile-filtered deionized water at 51.2 mM or 35 mM, and then diluted in complete RPMI 1640 medium followed by adding to individual wells to yield the final concentration indicated. Control wells received an equal volume of medium only were used in all experiment.
Background: In an ELISA, binding on a coated surface is turned into a signal by an enzyme label.

A further data set relates to TNF. Briefly: TNF levels in tumor biopsy samples of solid tumor-bearing mice. The class given is in vivo. Particulars: 1 mg/kg ip; tumor biopsy samples in four mice.
The test system of another data set is monocytes. Particulars: spermine at the concentrations indicated. As to the method:
as §1

The next data set deals with G361 cells. Nature of the data set: Macrophage-mediated cytotoxicity of LPS-activated monocytes to tumor cells.
Where [3] appears, read: 50 μM spermine, macrophages activated by endotoxin (LPS).

Procedure for G361 cells: Tumor cell cultures were split tumor cells 1:3 in FBS-containing RPMI 1640 medium and incubate overnight 20 μCi/ml ^3H-thymidine was added to tumor cell cultures to label the cells overnight. The cells were washed to remove unabsorbed label. The cells were trypsinized and suspended in 10 ml DPBS, washed and counted. Flasks of 7.5×10^5, 7.5/2×10^5, 7.5/4×10^5, 7.5/8×10^5, 7.5/16×10^5 and 7.7/32×10^5 cells/ml in RPMI 1640 medium were prepared. The tumor cells (200 μl) were added to wells containing 3×10^5 monocytes or control wells to make the E/T ratio 2:1, 4:1, 8:1, 16:1, 32:1 and 64:1. The cell mixture was incubated for 2 hours and macrophage-mediated cytotoxicity to tumor cells was determined.
PBMCs were isolated in a Ficoll-Paque (Pharmacia) gradient and plated. After 2 hours of incubation, the nonadherent cells were removed by rinsing with RPMI 1640 medium without serum 3×, then add 25 ml human serum-containing RPMI 1640 medium with 2 ng/ml human MCSF to each 75 flask and incubate the cells overnight. The cells were labeled with 20 uCi/ml ^3H-thymidine overnight and washed 2× with DPBS without Ca & Mg. The monocytes were isolated and counted, then diluted to 1.5×10^6 cells/ml in RPMI 1640. Tumor cells were diluted to 7.5×10^5, 7.5/2×10^5, 7.5/4×10^5, 7.5/8×10^5, 7.5/16×10^5 and 7.7/32×10^5 cells/ml in RPMI 1640 medium. About 200 μl tumor cells were added at different concentration to the wells containing 3×10^5 monocytes or control wells to make the E/T ratio 2:1, 4:1, 8:1, 16:1, 32:1 and 64:1, then incubated for 2 hrs.
About 400 μg/μl LPS was sonicated for 10 min, then 19.2 μl 400 μg/ml LPS was added to 10 ml RPMI 1640 medium.

Regarding `CC1(C)CC(NCCCCCCNC2CC(C)(C)NC(C)(C)C2)CC(C)(C)N1` [compound 38, N,N′-bis(2,2,6,6-tetramethyl-4-piperidyl)hexamethylenediamine], the “paw edema, override of inflammatory inhibition by spermine” value in data set [1] (in vivo mouse paw edema model, dose response) was “overrode the inflammatory inhibition by spermine”. Besides, the “paw thickness, override of spermine effect” value in data set [1] (mouse foot pad carrageenan model, clinical concentrations) is recorded as “overrides the spermine effect”. Further, the direct cytotoxicity entry with tumor cells was “not cytotoxic”. Besides, the tumor formation entry with B16 F1 tumor cells (mice inoculated with equal amounts of tumor cells, three doses at two concentrations) is listed as “delayed tumor formation”. Also, the solid tumor masses result in the data set with B16 F1 tumor cells was “shrink solid tumor masses”. The “override of spermine inhibition of TNFα release” value in data set [2] is on record as “overcome spermine inhibition of TNFα release; also recorded: effectively overrode spermine-induced suppression of TNF secretion”.

In the case of `NCCCN1CCN(CCCN)CC1` [compound 91], in the data set with TNF, the “TNF levels in tumors” value is given as “significantly increase TNF levels in tumors”. Further, the direct cytotoxicity entry in the data set with tumor cells is reported as “not cytotoxic”. The “tumor size, time-response” value with B16 F1 tumor cells (2 mg/kg) is on record as “shrink tumor size”. In addition, the “growth of established tumors” value in the data set on B16 F1 tumor cells (2 mg/kg administered seven days after tumor inoculation) was “inhibited the growth of established tumors”. The solid tumor masses result in the data set with B16 F1 tumor cells is listed as “shrink solid tumor masses”. In the data set on B16 F1 tumor cells (two doses i.p., 0.5 mg/kg and 2 mg/kg in sterile PBS), the “tumor size, time response and dose-response” value is “shrink tumor size”. Further, in data set [2], the “override of spermine inhibition of TNFα release” value is reported as “effectively overrode spermine-induced suppression of TNF secretion”.

Regarding `NCCCCC(CN)CCCN` (stereo not shown) [compound 94], in the data set with tumor cells, the direct cytotoxicity result was “not cytotoxic”.

In the case of `C(CCC1CCNCC1)CC1CCNCC1` [compound 214140], the “override of spermine inhibition of TNFα release” value in data set [2] was “override the inhibitory effect of spermine”.

For `NCCCNCCCCNCCCN` [spermine], the “cell viability (LDH assay)” value with monocytes is “did not affect cell viability significantly”. In addition, the “acute footpad inflammation induced by carageenan” value in data set [1] (local administration in mice) is “protected mice against the development of acute footpad inflammation”. In addition, the “percent cytotoxicity, LPS alone versus LPS with spermine” value in the data set with G361 cells (100 ng/ml LPS, 50 mM spermine, several ratios) is given as “reduces LPS-induced cytotoxicity”. The “cellular cytotoxicity of activated monocytes against G361 cells” value in the data set on G361 cells (100 ng/ml LPS, 50-100 μM spermine) is listed as “significantly inhibited”. For the same compound, the “macrophage-mediated tumor cell killing” value in the data set on G361 cells (setting [3]) is “effectively suppressed macrophage-mediated tumor cell killing”. Further, in data set [2] (setting [3]), the “suppression of TNF secretion” value is recorded as “effectively suppressed TNF secretion”. In data set [2] (serum-free conditions and in the presence of the polyamine oxidase inhibitor aminoguanidine), the “inhibition of cytokine synthesis” value was “effectively inhibit cytokine synthesis”.
